From PubChem BioAssay AID1259407 (Chemical Carcinogenesis Research Information System (CCRIS), 2018)
Calls of active or inactive are those of the source. No rule for the calls is given here.

Tested on: CCRIS mutagenicity, Ames/micronucleus/aberration tests
Experiment: CCRIS mutagenicity studies

In the case of `O=NN1CCCCC1`, the mutagenic call (Test System: AMES SALMONELLA TYPHIMURIUM, Strain/Indicator: TA98, Metabolic Activation: HAMSTER, LIVER, S-9, AROCLOR 1254 (10%), Method: PREINCUBATION) is reported as “active; positive”, the mutagenic call (Test System: AMES SALMONELLA TYPHIMURIUM, Strain/Indicator: TA98, Metabolic Activation: HAMSTER, LIVER, S-9, AROCLOR 1254 (10%), Method: STANDARD PLATE) is reported as “active; positive” and the mutagenic call (Test System: AMES SALMONELLA TYPHIMURIUM, Strain/Indicator: TA98, Metabolic Activation: HAMSTER, LIVER, S-9, AROCLOR 1254, Method: PREINCUBATION) is reported as “active; positive”. The mutagenic call (Test System: AMES SALMONELLA TYPHIMURIUM, Strain/Indicator: TA98, Metabolic Activation: HAMSTER, LIVER, S-9, AROCLOR 1254, Method: STANDARD PLATE) was “active; positive”, the mutagenic call (Test System: AMES SALMONELLA TYPHIMURIUM, Strain/Indicator: TA98, Metabolic Activation: NONE, Method: PREINCUBATION) was “inactive; negative” and the mutagenic call (Test System: AMES SALMONELLA TYPHIMURIUM, Strain/Indicator: TA98, Metabolic Activation: NONE, Method: STANDARD PLATE) was “inactive; negative”. The mutagenic call (Test System: AMES SALMONELLA TYPHIMURIUM, Strain/Indicator: TA98, Metabolic Activation: RAT, LIVER, S-9, AROCLOR 1254 (10%), Method: PREINCUBATION) was “inactive; negative”, the mutagenic call (Test System: AMES SALMONELLA TYPHIMURIUM, Strain/Indicator: TA98, Metabolic Activation: RAT, LIVER, S-9, AROCLOR 1254 (10%), Method: STANDARD PLATE) was “inactive; negative” and the mutagenic call (Test System: AMES SALMONELLA TYPHIMURIUM, Strain/Indicator: TA98, Metabolic Activation: RAT, LIVER, S-9, AROCLOR 1254, Method: PREINCUBATION) was “inactive; negative”. The mutagenic call (Test System: AMES SALMONELLA TYPHIMURIUM, Strain/Indicator: TA98, Metabolic Activation: RAT, LIVER, S-9, AROCLOR 1254, Method: STANDARD PLATE) was “inactive; negative”, the mutagenic call (Test System: AMES SALMONELLA TYPHIMURIUM, Strain/Indicator: TA100, Metabolic Activation: HAMSTER, LIVER, S-9, AROCLOR 1254 (10%), Method: PREINCUBATION) was “active; positive” and the mutagenic call (Test System: AMES SALMONELLA TYPHIMURIUM, Strain/Indicator: TA100, Metabolic Activation: HAMSTER, LIVER, S-9, AROCLOR 1254 (10%), Method: STANDARD PLATE) was “active; positive”. For the same compound, the mutagenic call (Test System: AMES SALMONELLA TYPHIMURIUM, Strain/Indicator: TA100, Metabolic Activation: HAMSTER, LIVER, S-9, AROCLOR 1254, Method: PREINCUBATION) was “active; positive”, the mutagenic call (Test System: AMES SALMONELLA TYPHIMURIUM, Strain/Indicator: TA100, Metabolic Activation: HAMSTER, LIVER, S-9, Method: PREINCUBATION) was “active; positive” and the mutagenic call (Test System: AMES SALMONELLA TYPHIMURIUM, Strain/Indicator: TA100, Metabolic Activation: HUMAN, LIVER, S-9, Method: PREINCUBATION) was “active; positive”. For the same compound, the mutagenic call (Test System: AMES SALMONELLA TYPHIMURIUM, Strain/Indicator: TA100, Metabolic Activation: MOUSE, LIVER, S-9, Method: PREINCUBATION) was “active; positive”, the mutagenic call (Test System: AMES SALMONELLA TYPHIMURIUM, Strain/Indicator: TA100, Metabolic Activation: NONE, Method: PREINCUBATION) was “inactive; negative” and the mutagenic call (Test System: AMES SALMONELLA TYPHIMURIUM, Strain/Indicator: TA100, Metabolic Activation: NONE, Method: STANDARD PLATE) was “inactive; negative”. For the same compound, the mutagenic call (Test System: AMES SALMONELLA TYPHIMURIUM, Strain/Indicator: TA100, Metabolic Activation: RABBIT, LIVER, S-9, Method: STANDARD PLATE) was “inactive; negative”, the mutagenic call (Test System: AMES SALMONELLA TYPHIMURIUM, Strain/Indicator: TA100, Metabolic Activation: RABBIT, LUNG, S-9, Method: STANDARD PLATE) was “active; positive” and the mutagenic call (Test System: AMES SALMONELLA TYPHIMURIUM, Strain/Indicator: TA100, Metabolic Activation: RABBIT, NASAL, S-9, Method: STANDARD PLATE) was “inactive; negative”. The mutagenic call (Test System: AMES SALMONELLA TYPHIMURIUM, Strain/Indicator: TA100, Metabolic Activation: RAT, LIVER, S-9, AROCLOR 1254 (10%), Method: PREINCUBATION) was “active; positive”, the mutagenic call (Test System: AMES SALMONELLA TYPHIMURIUM, Strain/Indicator: TA100, Metabolic Activation: RAT, LIVER, S-9, AROCLOR 1254 (10%), Method: STANDARD PLATE) was “inactive; negative” and the mutagenic call (Test System: AMES SALMONELLA TYPHIMURIUM, Strain/Indicator: TA100, Metabolic Activation: RAT, LIVER, S-9, AROCLOR 1254, Method: PREINCUBATION) was “active; positive”. For the same compound, the mutagenic call (Test System: AMES SALMONELLA TYPHIMURIUM, Strain/Indicator: TA100, Metabolic Activation: RAT, LIVER, S-9, AROCLOR 1254, Method: STANDARD PLATE) was “inactive; negative”, the mutagenic call (Test System: AMES SALMONELLA TYPHIMURIUM, Strain/Indicator: TA100, Metabolic Activation: RAT, LUNG, S-9, Method: STANDARD PLATE) was “inactive; negative” and the mutagenic call (Test System: AMES SALMONELLA TYPHIMURIUM, Strain/Indicator: TA100, Metabolic Activation: RAT, NASAL, S-9, Method: STANDARD PLATE) was “active; positive”. The mutagenic call (Test System: AMES SALMONELLA TYPHIMURIUM, Strain/Indicator: TA100, Metabolic Activation: TOBACCO CELLS, Method: PREINCUBATION) was “inactive; negative”, the mutagenic call (Test System: AMES SALMONELLA TYPHIMURIUM, Strain/Indicator: TA104, Metabolic Activation: RAT, LIVER, S-9, AROCLOR 1254, Method: PREINCUBATION) was “active; positive” and the mutagenic call (Test System: AMES SALMONELLA TYPHIMURIUM, Strain/Indicator: TA1530, Metabolic Activation: RAT LIVER, CYTOSOL, ISONIAZID, Method: PREINCUBATION) was “inactive; negative”. For the same compound, the mutagenic call (Test System: AMES SALMONELLA TYPHIMURIUM, Strain/Indicator: TA1530, Metabolic Activation: RAT LIVER, MICROSOMES, ISONIAZID, Method: PREINCUBATION) was “active; positive”, the mutagenic call (Test System: AMES SALMONELLA TYPHIMURIUM, Strain/Indicator: TA1530, Metabolic Activation: RAT, LIVER, S-9, Method: STANDARD PLATE) was “active; positive” and the mutagenic call (Test System: AMES SALMONELLA TYPHIMURIUM, Strain/Indicator: TA1535, Metabolic Activation: HAMSTER, LIVER, S-9, AROCLOR 1254 (10%), Method: PREINCUBATION) was “active; positive”. For the same compound, the mutagenic call (Test System: AMES SALMONELLA TYPHIMURIUM, Strain/Indicator: TA1535, Metabolic Activation: HAMSTER, LIVER, S-9, AROCLOR 1254, Method: PREINCUBATION) was “active; positive”, the mutagenic call (Test System: AMES SALMONELLA TYPHIMURIUM, Strain/Indicator: TA1535, Metabolic Activation: NONE, Method: PREINCUBATION) was “inactive; negative” and the mutagenic call (Test System: AMES SALMONELLA TYPHIMURIUM, Strain/Indicator: TA1535, Metabolic Activation: RAT, LIVER, S-9, AROCLOR 1254 (10%), Method: PREINCUBATION) was “active; positive”. The mutagenic call (Test System: AMES SALMONELLA TYPHIMURIUM, Strain/Indicator: TA1535, Metabolic Activation: RAT, LIVER, S-9, AROCLOR 1254, Method: PREINCUBATION) was “active; positive”, the mutagenic call (Test System: AMES SALMONELLA TYPHIMURIUM, Strain/Indicator: TA1535, Metabolic Activation: RAT, LIVER, S-9, Method: STANDARD PLATE) was “active; positive” and the mutagenic call (Test System: AMES SALMONELLA TYPHIMURIUM, Strain/Indicator: TA1537, Metabolic Activation: HAMSTER, LIVER, S-9, AROCLOR 1254 (10%), Method: PREINCUBATION) was “inactive; negative”. The mutagenic call (Test System: AMES SALMONELLA TYPHIMURIUM, Strain/Indicator: TA1537, Metabolic Activation: HAMSTER, LIVER, S-9, AROCLOR 1254, Method: PREINCUBATION) was “inactive; negative”, the mutagenic call (Test System: AMES SALMONELLA TYPHIMURIUM, Strain/Indicator: TA1537, Metabolic Activation: NONE, Method: PREINCUBATION) was “inactive; negative” and the mutagenic call (Test System: AMES SALMONELLA TYPHIMURIUM, Strain/Indicator: TA1537, Metabolic Activation: RAT, LIVER, S-9, AROCLOR 1254 (10%), Method: PREINCUBATION) was “inactive; negative”. For the same compound, the mutagenic call (Test System: AMES SALMONELLA TYPHIMURIUM, Strain/Indicator: TA1537, Metabolic Activation: RAT, LIVER, S-9, AROCLOR 1254, Method: PREINCUBATION) was “inactive; negative”, the mutagenic call (Test System: AMES SALMONELLA TYPHIMURIUM, Strain/Indicator: TA1538, Metabolic Activation: HAMSTER, LIVER, S-9, AROCLOR 1254 (10%), Method: PREINCUBATION) was “inactive; negative” and the mutagenic call (Test System: AMES SALMONELLA TYPHIMURIUM, Strain/Indicator: TA1538, Metabolic Activation: HAMSTER, LIVER, S-9, AROCLOR 1254, Method: PREINCUBATION) was “inactive; negative”. The mutagenic call (Test System: AMES SALMONELLA TYPHIMURIUM, Strain/Indicator: TA1538, Metabolic Activation: NONE, Method: PREINCUBATION) was “inactive; negative”, the mutagenic call (Test System: AMES SALMONELLA TYPHIMURIUM, Strain/Indicator: TA1538, Metabolic Activation: RAT, LIVER, S-9, AROCLOR 1254 (10%), Method: PREINCUBATION) was “inactive; negative” and the mutagenic call (Test System: AMES SALMONELLA TYPHIMURIUM, Strain/Indicator: TA1538, Metabolic Activation: RAT, LIVER, S-9, AROCLOR 1254, Method: PREINCUBATION) was “inactive; negative”. For the same compound, the mutagenic call (Test System: AMES SALMONELLA TYPHIMURIUM, Strain/Indicator: TA1975, Metabolic Activation: RAT, LIVER, S-9, AROCLOR 1254, Method: PREINCUBATION) was “active; positive”, the mutagenic call (Test System: UDS RODENT CELLS, Strain/Indicator: THY INCORP (NON-S-PHASE), Metabolic Activation: NONE, Method: LIQUID SCINTILLATION COUNTING) was “inactive; negative” and the mutagenic call (Test System: UDS RODENT CELLS, Strain/Indicator: THY INCORP (NON-S-PHASE), Metabolic Activation: RAT, LIVER, S-9, SODIUM PHENOBARBITAL, Method: LIQUID SCINTILLATION COUNTING) was “active; positive”.
